From patent US10597388B2, “Pyridazinone herbicides” (FMC CORPORATION, priority 2014, dated 2020)

What was measured:
Assay in all cases: Test C greenhouse herbicide test, pre- and postemergence
Assay type in all cases: in vivo
[1] = tested on: nutsedge, yellow (yellow nutsedge, Cyperus esculentus)
How it was run: (§1)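 Greenhouse pots; pre-em on seeded loam:sand blend, post-em on 2–18 cm plants (1–4 leaf) in sphagnum peat/vermiculite medium. Formulation: non-phytotoxic solvent + surfactant. Read-out: visual % control (0–100) vs controls at 13–15 d.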

[2] = tested on: blackgrass (Alopecurus myosuroides)
How it was run: as §1

[3] = tested on: lambsquarters (Chenopodium album)
How it was run: as §1

[4] = tested on: ragweed (common ragweed, Ambrosia elatior)
How it was run: as §1

[5] = tested on: barnyardgrass (Echinochloa crus-galli)
How it was run: as §1

soybean (Glycine max) = tested on: soybean (Glycine max)
How it was run: as §1

[6] = tested on: crabgrass, large (large crabgrass, Digitaria sanguinalis)
How it was run: as §1

[7] = tested on: foxtail, giant (giant foxtail, Setaria faberii)
How it was run: as §1

[8] = tested on: galium (catchweed bedstraw, Galium aparine)
How it was run: as §1

corn (Zea mays) = tested on: corn (Zea mays)
How it was run: as §1

[9] = tested on: morningglory (Ipomoea coccinea)
How it was run: as §1

[10] = tested on: velvetleaf (Abutilon theophrasti)
How it was run: as §1

[11] = tested on: ryegrass, Italian (Italian ryegrass, Lolium multiflorum)
How it was run: as §1

[12] = tested on: waterhemp (common waterhemp, Amaranthus rudis)
How it was run: as §1

[13] = tested on: oilseed rape (Brassica napus)
How it was run: as §1

[14] = Postemergence, 31 g ai/ha, scale 0 to 100 (0 no effect, 100 complete control)
[15] = Postemergence, 62 g ai/ha, 0 to 100 scale (0 no effect, 100 complete control)
[16] = Postemergence, 250 g ai/ha, scale 0 to 100, 0 is no effect, 100 is complete control
[17] = postemergence, 125 g ai/ha, scale 0 to 100, 0 no effect, 100 complete control

Cc1nn(C)c(=O)c(-c2c([N+](=O)[O-])ccc3ccccc23)c1O [Compound 165]
95: Plant response rating, Morningglory [9, 16]
20: Plant response rating, Nutsedge, Yellow [1, 14] | Blackgrass plant response rating [2, 17] | Plant response rating, Crabgrass, Large [6, 16] | Crabgrass, Large plant response rating [6, 17] | Plant response rating, Velvetleaf [10, 14] | Velvetleaf plant response rating [10, 17]
65: Plant response rating, Waterhemp [12, 14]
85: Lambsquarters plant response rating [3, 17] | Plant response rating, Ragweed [4, 16] | Plant response rating, Galium [8, 14] | Galium plant response rating [8, 15] | Morningglory plant response rating [9, 17]
30: Nutsedge, Yellow plant response rating [1, 15]
55: Ragweed plant response rating [4, 15] | Ryegrass, Italian plant response rating [11, 17]
100: Plant response rating, Galium [8, 16]
98: Plant response rating, Lambsquarters [3, 16] | Galium plant response rating [8, 17]
10: Plant response rating, Barnyardgrass [5, 14] | Plant response rating, Soybean (soybean (Glycine max); [14]) | Soybean plant response rating (soybean (Glycine max); [15])
35: Plant response rating, Nutsedge, Yellow [1, 16]
70: Plant response rating, Lambsquarters [3, 14] | Morningglory plant response rating [9, 15] | Plant response rating, Ryegrass, Italian [11, 16] | Waterhemp plant response rating [12, 15]
15: Blackgrass plant response rating [2, 15] | Barnyardgrass plant response rating [5, 15] | Plant response rating, Soybean (soybean (Glycine max); [16]) | Soybean plant response rating (soybean (Glycine max); [17]) | Foxtail, Giant plant response rating [7, 17]
0: Plant response rating, Crabgrass, Large [6, 14] | Plant response rating, Foxtail, Giant [7, 14] | Plant response rating, Corn (corn (Zea mays); [14]) | Corn plant response rating (corn (Zea mays); [15]) | Corn plant response rating (corn (Zea mays); [17]) | Plant response rating, Oilseed Rape [13, 14] | Oilseed Rape plant response rating [13, 15] | Oilseed Rape plant response rating [13, 17]
25: Nutsedge, Yellow plant response rating [1, 17] | Plant response rating, Blackgrass [2, 16] | Plant response rating, Barnyardgrass [5, 16] | Barnyardgrass plant response rating [5, 17] | Plant response rating, Foxtail, Giant [7, 16] | Velvetleaf plant response rating [10, 15]
75: Lambsquarters plant response rating [3, 15] | Ragweed plant response rating [4, 17] | Plant response rating, Morningglory [9, 14] | Plant response rating, Waterhemp [12, 16] | Waterhemp plant response rating [12, 17]
5: Plant response rating, Blackgrass [2, 14] | Crabgrass, Large plant response rating [6, 15] | Foxtail, Giant plant response rating [7, 15] | Plant response rating, Corn (corn (Zea mays); [16]) | Plant response rating, Oilseed Rape [13, 16]
50: Plant response rating, Velvetleaf [10, 16] | Ryegrass, Italian plant response rating [11, 15]
40: Plant response rating, Ragweed [4, 14] | Plant response rating, Ryegrass, Italian [11, 14]
